# Test results taken from US20250214993A1, “AROMATIC RING COMPOUND AND USE THEREOF” (SHANGHAI SHIJIANG BIOTECHNOLOGY CO., LTD, priority 2022, published 2025).
# Columns and labels:
# Con-NCI-H82 cell = assay: Cell viability (Promega CellTiter-Glo, intracellular ATP), IC50 on Con-NCI-H82 cell; type: cell-based; details: Homo sapiens; normal untreated NCI-H82 cell (control)
# Text: (§1) The expression of NNMT protein in NCI-H82 cell was overexpressed by inserting the NNMT gene into NCI-H82 cell using a viral vector, and the NNMT protein-overexpressing NCI-H82 cell (ov-NNMT NCI-H82 cell) was obtained. The normal and untreated NCI-H82 cell (Con-NCI-H82 cell) was used as control. The expressing content of NNMT protein in the ov-NNMT NCI-H82 cell and Con-NCI-H82 cell was detected using Western Blot assay (as shown in FIG. 1), it could be seen from FIG. 1 that the NNMT protein was overexpressed in the ov-NNMT NCI-H82 cell compared with the expression level of NNMT protein in the Con-NCI-H82 cell.
# (§2) The cell viability was detected using the Promega CellTiter-Glo kit which reflected cell viability by measuring intracellular ATP content. The Con-NCI-H82 cell and ov-NNMT NCI-H82 cell was cultured in 10% fetal bovine serum-containing RPMI1640 medium (+P/S).
# ov-NNMT NCI-H82 cell = assay: Cell viability (Promega CellTiter-Glo, intracellular ATP), IC50 on NNMT-overexpressing NCI-H82 cell; type: cell-based; details: Homo sapiens; NCI-H82 cell overexpressing NNMT protein
# Text: as §1, §2
Structure (SMILES),IC50 (Con-NCI-H82 cell),IC50 (ov-NNMT NCI-H82 cell)
Cc1ccc(C(=O)C[n+]2ccc3c(c2)CCN3c2ccccc2)cc1 [AB24994],810 nM,2990 nM
O=C(C[n+]1ccc2c(c1)CCC(c1ccccc1)N2)c1ccc(C(F)(F)F)cc1 (stereo not shown) [AB27102],1160 nM,4590 nM
O=C1c2ccc(OC(F)(F)F)cc2CCC1[n+]1ccc2c(c1)CCC(c1ccccc1)N2 (stereo not shown) [AB27105],874 nM,5430 nM
O=C1c2ccc(C(F)(F)F)cc2CCC1[n+]1ccc(NCc2ccccc2)cc1 (stereo not shown) [AB27110],996 nM,5040 nM
Cc1cccc(-c2c[nH]c3c[n+](CC(=O)c4ccc(OC(F)(F)F)cc4)ccc23)c1 [AB27121],2260 nM,6450 nM
O=C1c2cc(Cl)ccc2CCC1[n+]1ccc2c(c1)CCC(c1ccccc1)N2 (stereo not shown) [AB27134],3350 nM,12400 nM
O=C1c2cc(OC(F)(F)F)ccc2CCC1[n+]1cnc2c(c1)CCC(c1ccccc1)N2 (stereo not shown) [AB27136],5610 nM,14600 nM
Cc1ccc2c(c1)C(=O)C([n+]1cnc3c(c1)CCC(c1ccccc1)N3)CC2 (stereo not shown) [AB27137],4360 nM,12000 nM
O=C(C[n+]1ccc2c(c1)CCC(c1ccccc1)N2)c1cccc(C(F)(F)F)c1 (stereo not shown) [AB27146],1710 nM,6790 nM
O=C(C[n+]1ccc2c(c1)CCC(c1ccccc1)N2)c1cccc(OC(F)(F)F)c1 (stereo not shown) [AB27147],1390 nM,5480 nM
CCCn1ccc2c[n+](C3CCc4ccc(C(F)(F)F)cc4C3=O)ccc21 (stereo not shown) [AB27150],632 nM,3170 nM
CC(C)n1ccc2c[n+](C3CCc4ccc(C(F)(F)F)cc4C3=O)ccc21 (stereo not shown) [AB27151],1040 nM,2980 nM
CC(C)n1ccc2c[n+](C3CCc4ccc(OC(F)(F)F)cc4C3=O)ccc21 (stereo not shown) [AB27157],1530 nM,6320 nM
O=C(C[n+]1ccc(NCc2ccccc2)nc1)c1cccc(C(F)(F)F)c1 [AB27160],744 nM,5490 nM
Cc1ccc2c(c1)CCC([n+]1ccc3c(c1)c(C)cn3Cc1ccccc1)C2=O (stereo not shown) [AB27177],131 nM,1860 nM
Cc1ccc2c(c1)C(=O)C(n1ccc3c[n+](C(C)c4ccccc4)ccc31)CC2 (stereo not shown) [AB27180],16 nM,222 nM
CC(c1ccccc1)c1cn(C)c2c[n+](C3CCc4ccc(Cl)cc4C3=O)ccc12 (stereo not shown) [AB27186],1990 nM,5690 nM
CC(c1ccccc1)[n+]1ccc2c(ccn2C2CCc3ccsc3C2=O)c1 (stereo not shown) [AB27199],446 nM,4830 nM
Cc1nc2c(s1)C(=O)C(n1ccc3c[n+](C(C)c4ccccc4)ccc31)CC2 (stereo not shown) [AB27203],1940 nM,6430 nM
Cc1nc2c(s1)C(=O)C([n+]1ccc3c(ccn3Cc3ccccc3)c1)CC2 (stereo not shown) [AB27204],3450 nM,13400 nM
CC(c1ccccc1)[n+]1ccc2c(ccn2C2CCc3ccoc3C2=O)c1 (stereo not shown) [AB27205],2790 nM,9490 nM
O=C1c2occc2CCC1[n+]1ccc2c(ccn2Cc2ccccc2)c1 (stereo not shown) [AB27206],2540 nM,7620 nM
O=C1c2cc(Cl)ccc2CCC1[n+]1ccc2c(ccn2C(=O)c2ccccc2)c1 (stereo not shown) [AB27214],1740 nM,6700 nM

Structure (SMILES),IC50 (Con-NCI-H82 cell),IC50 (ov-NNMT NCI-H82 cell)
O=C1c2cc(Cl)ccc2CCC1[n+]1ccc2c(ccn2S(=O)(=O)c2ccccc2)c1 (stereo not shown) [AB27215],1610 nM,10800 nM
CCC(=O)N(Cc1ccccc1)c1cc[n+](CC(=O)c2ccc(C)cc2)cc1 [AB27232],290 nM,3050 nM
CCCC(=O)N(Cc1ccccc1)c1cc[n+](CC(=O)c2ccc(C)cc2)cc1 [AB27234],1270 nM,6960 nM
Cc1ccc(C(=O)C[n+]2ccc(N(Cc3ccccc3)C(=O)C(C)C)cc2)cc1 [AB27235],178 nM,1980 nM
CCc1cc(NCc2ccccc2)cc[n+]1CC(=O)c1ccc(C)cc1 [AB27236],50 nM,822 nM
Cc1ccc(C(=O)C[n+]2ccc(NCc3ccccc3)cc2C(C)C)cc1 [AB27237],39 nM,525 nM
Cc1ccc(C(=O)C[n+]2ccc(NCc3ccccc3)cc2C2CC2)cc1 [AB27238],151 nM,1150 nM
Cc1ccc(C[n+]2ccc3c(ccn3C3CCc4ccc(Cl)cc4C3=O)c2)cc1 (stereo not shown) [AB27240],15 nM,285 nM
Cc1cccc(C[n+]2ccc3c(ccn3C3CCc4ccc(Cl)cc4C3=O)c2)c1 (stereo not shown) [AB27241],14 nM,184 nM
Cc1ccccc1C[n+]1ccc2c(ccn2C2CCc3ccc(Cl)cc3C2=O)c1 (stereo not shown) [AB27242],15 nM,204 nM
O=C1c2cc(Cl)ccc2CCC1n1ccc2c[n+](Cc3ccccc3Cl)ccc21 (stereo not shown) [AB27243],15 nM,184 nM
O=C1c2cc(Cl)ccc2CCC1n1ccc2c[n+](Cc3cccc(Cl)c3)ccc21 (stereo not shown) [AB27244],24 nM,342 nM
O=C1c2cc(Cl)ccc2CCC1n1ccc2c[n+](Cc3ccc(Cl)cc3)ccc21 (stereo not shown) [AB27245],88 nM,868 nM
CCC(c1ccccc1)[n+]1ccc2c(ccn2C2CCc3ccc(Cl)cc3C2=O)c1 (stereo not shown) [AB27246],18 nM,308 nM
O=C1c2cc(OC(F)(F)F)ccc2CCC1[n+]1ccc2c(ccn2CC2CC2)c1 (stereo not shown) [AB27247],403 nM,1650 nM
CCCCCn1ccc2c[n+](C3CCc4ccc(OC(F)(F)F)cc4C3=O)ccc21 (stereo not shown) [AB27249],222 nM,1520 nM
CCCCCn1ccc2c[n+](C3CCc4ccc(Cl)cc4C3=O)ccc21 (stereo not shown) [AB27250],51 nM,684 nM
O=C1c2cc(Cl)ccc2CCC1[n+]1ccc2c(ccn2CC2CC2)c1 (stereo not shown) [AB27252],968 nM,3690 nM
CCCn1ccc2c[n+](C3CCc4ccc(Cl)cc4C3=O)ccc21 (stereo not shown) [AB27253],1680 nM,5480 nM
O=C1c2sc(Cl)nc2CCC1[n+]1ccc2c(ccn2Cc2ccccc2)c1 (stereo not shown) [AB27254],3590 nM,12700 nM
O=C(Cn1ccc2c[n+](Cc3ccccc3)ccc21)c1cccc(Cl)c1 [AB27258],14 nM,276 nM
Cc1cccc(C(=O)Cn2ccc3c[n+](Cc4ccccc4)ccc32)c1 [AB27259],18 nM,235 nM
Cc1ccc(C(=O)Cn2ccc3c[n+](Cc4ccccc4)ccc32)cc1 [AB27260],13 nM,243 nM

Structure (SMILES),IC50 (Con-NCI-H82 cell),IC50 (ov-NNMT NCI-H82 cell)
O=C(Cn1ccc2c[n+](Cc3ccccc3)ccc21)c1cccc(C(F)(F)F)c1 [AB27262],57 nM,1000 nM
O=C(Cn1ccc2c[n+](Cc3ccccc3)ccc21)c1cccc(OC(F)(F)F)c1 [AB27263],32 nM,322 nM
O=C(Cn1ccc2c[n+](Cc3ccccc3)ccc21)c1ccc(C(F)(F)F)cc1 [AB27264],267 nM,2220 nM
O=C(Cn1ccc2c[n+](Cc3ccccc3)ccc21)c1ccc(OC(F)(F)F)cc1 [AB27265],123 nM,864 nM
Cc1cn(CC(=O)c2cccc(Cl)c2)c2cc[n+](Cc3ccccc3)cc12 [AB27266],89 nM,754 nM
Cc1cccc(C(=O)Cn2cc(C)c3c[n+](Cc4ccccc4)ccc32)c1 [AB27267],113 nM,903 nM
Cc1ccc(C(=O)Cn2cc(C)c3c[n+](Cc4ccccc4)ccc32)cc1 [AB27268],104 nM,1320 nM
O=C(Cn1cc(Cl)c2c[n+](Cc3ccccc3)ccc21)c1cccc(Cl)c1 [AB27269],233 nM,2180 nM
Cc1cn(CC(=O)c2cccc(Cl)c2)c2cc[n+](C(C)c3ccccc3)cc12 (stereo not shown) [AB27270],401 nM,3690 nM
O=C1c2cc(Cl)ccc2CCC1n1cc(Cl)c2c[n+](Cc3ccccc3)ccc21 (stereo not shown) [AB27271],34 nM,567 nM
Cc1ccc(C(=O)C[n+]2ccc(NCc3ccccc3)c3ccccc32)cc1 [AB27272],776 nM,5480 nM
Cc1cc(NCc2ccccc2)cc[n+]1CC(=O)c1ccc(C(F)(F)F)cc1 [AB27273],187 nM,1540 nM
Cc1cc(NCc2ccccc2)cc[n+]1CC(=O)c1ccc(OC(F)(F)F)cc1 [AB27274],664 nM,4530 nM
Cc1cc(NCc2ccccc2)cc[n+]1CC(=O)c1cccc(C(F)(F)F)c1 [AB27275],63 nM,886 nM
Cc1cc(NCc2ccccc2)cc[n+]1CC(=O)c1cccc(OC(F)(F)F)c1 [AB27276],92 nM,1130 nM
Cc1ccc(C(=O)C[n+]2ccc(NCc3ccccc3)c(C)c2C)cc1 [AB27278],21 nM,284 nM
Cc1ccc(C(=O)CN(C)c2cc[n+](Cc3ccccc3)cc2)cc1 [AB27285],364 nM,1350 nM
Cc1ccc2c(c1)C(=O)C([n+]1ccc3cn(Cc4ccccc4)cc3c1)CC2 (stereo not shown) [AB27287],198 nM,2540 nM
O=C1c2cc(C(F)(F)F)ccc2CCC1[n+]1ccc2cn(Cc3ccccc3)cc2c1 (stereo not shown) [AB27288],344 nM,2490 nM
O=C1c2cc(OC(F)(F)F)ccc2CCC1[n+]1ccc2cn(Cc3ccccc3)cc2c1 (stereo not shown) [AB27289],285 nM,2050 nM
O=C1c2ccc(C(F)(F)F)cc2CCC1n1ccc2c[n+](Cc3ccccc3)ccc21 (stereo not shown) [AB27290],91 nM,944 nM
O=C1c2ccc(OC(F)(F)F)cc2CCC1n1ccc2c[n+](Cc3ccccc3)ccc21 (stereo not shown) [AB27291],79 nM,1040 nM
